{"source": "PubChem BioAssay AID489032", "about": "(Sanford-Burnham Center for Chemical Genomics, 2010)", "note": "Calls of active or inactive are those of the source. How the calls were made is not given here."}
{"test_system": "UPR adaptive arm reporter cells, luciferase luminescence", "assay": "activators of adaptive UPR signalling, dose response, cell-based, luciferase luminescence (AID 489032)"}
{"smiles": "COc1ccc(C(=O)O/N=C/c2c(C(F)(F)F)nn(C)c2SCc2ccccc2Cl)cc1", "EC50": "> 80 µM (inactive)"}
{"smiles": "Cc1ccc2nc(Nc3nc(-c4ccccc4)cc(=O)[nH]3)nc(C)c2c1", "EC50": "19.3 µM"}
{"smiles": "Cc1ccccc1OCc1nc(-c2ccc(NC(=O)c3ccc4c(c3)OCO4)cc2)no1", "EC50": "> 80 µM (inactive)"}
{"smiles": "COc1ccc(/C=c2\\s/c(=C(/C#N)C(=O)NCc3ccco3)n(-c3ccccc3)c2=O)cc1", "EC50": "> 80 µM (inactive)"}
{"smiles": "Brc1cc2c(cc1/C=N/Nc1nc3ccccc3s1)OCO2", "EC50": "57 µM (inactive)"}
{"smiles": "OC(CNCC1CCCO1)Cn1c2ccc(Br)cc2c2cc(Br)ccc21", "note": "(stereo unspecified)", "EC50": "> 80 µM (inactive)"}
{"smiles": "CC(NCC(O)COCCC12CC3CC(CC(C3)C1)C2)c1ccccc1", "note": "(stereo unspecified)", "EC50": "> 80 µM (inactive)"}
{"smiles": "COc1ccc(OC)c(-c2nnc3n2N=C(c2ccc(OC)c(OC)c2)CS3)c1", "EC50": "> 80 µM (inactive)"}
{"smiles": "O=C(/C=C/c1cc([N+](=O)[O-])ccc1OC(F)F)Nc1cccc([N+](=O)[O-])c1", "EC50": "> 80 µM (inactive)"}
{"smiles": "Cc1cccc2c1Sc1ccc(Cl)cc1CC2N1CCNCC1", "note": "(stereo unspecified)", "EC50": "> 80 µM (inactive)"}
{"smiles": "Brc1ccc(C2=Nn3c(nnc3-c3n[nH]c4c3CCC4)SC2)cc1", "EC50": "28.3 µM (inactive)"}
{"smiles": "c1ccc(N=Nc2ccc3cccccc2-3)cc1", "EC50": "> 80 µM (inactive)"}
{"smiles": "CN(C)CCCN(C(=O)c1cc(-c2cccs2)nc2ccccc12)c1nc2ccc(F)cc2s1", "EC50": "> 80 µM (inactive)"}
{"smiles": "CN(c1ccccc1)S(=O)(=O)c1cccc(C(=O)NCCc2ccc(O)c(O)c2)c1", "EC50": "32.2 µM (inactive)"}
{"smiles": "Cc1ccc2c(n1)sc1c(-c3ccc(Br)cc3)c(C#N)c(N)nc12", "EC50": "> 80 µM (inactive)"}
{"smiles": "CCCCCCCC(=O)Nc1ccc(C(=O)N/N=C/c2cccc([N+](=O)[O-])c2)cc1", "EC50": "18.3 µM"}
{"smiles": "COC(=O)c1ccc(COc2ccccc2/C=C(\\C#N)C(=O)Nc2c(C)cccc2C)cc1", "EC50": "> 80 µM (inactive)"}
{"smiles": "COc1cc(/C=C/c2ccc3cccc(O)c3n2)ccc1O", "EC50": "> 80 µM (inactive)"}
{"smiles": "Cc1ccc(-n2nc3c(N4CCC(C(=O)NCCc5cccs5)CC4)nnc(C)c3c2C)cc1", "EC50": "> 80 µM (inactive)"}
{"smiles": "O=C(COC(=O)/C=C/c1cn(-c2ccccc2)nc1-c1cccnc1)Nc1ccc(Cl)cc1Cl", "EC50": "> 80 µM (inactive)"}
{"smiles": "Cc1nn(Cc2c(Cl)cccc2Cl)c(C)c1NC(=O)c1sc2ccccc2c1Cl", "EC50": "29.8 µM (inactive)"}
{"smiles": "Cc1nc(SCC(=O)Nc2ccc(F)cc2)c(C#N)c(C)c1CC(=O)c1ccc(Br)cc1", "EC50": "> 80 µM (inactive)"}
{"smiles": "CCCc1nc2ccccc2c(=O)n1/N=C/c1ccc(O)c(O)c1", "EC50": "> 80 µM (inactive)"}
{"smiles": "Cc1ccc(CNC(=O)c2ccc3c(=O)n4c(-c5ccc(C)cc5)csc4nc3c2)cc1", "EC50": "> 80 µM (inactive)"}
{"smiles": "Cc1cnc(NC(=O)c2cc(S(=O)(=O)N(C)C)ccc2N2CCCC2)s1", "EC50": "6.6 µM"}
{"smiles": "Cc1ccc(NC(=O)c2nc[nH]c2C(=O)NCCCNC(=O)c2[nH]cnc2C(=O)Nc2ccc(C)cc2)cc1", "EC50": "> 80 µM (inactive)"}
{"smiles": "CCCCCCCCCCOC(=O)Cn1c(COc2ccc(Cl)cc2)[n+](C)c2ccccc21", "EC50": "> 80 µM (inactive)"}
{"smiles": "Cc1nc2cc(NC(=O)CSc3nc4c(C)cccc4cc3C#N)ccc2s1", "EC50": "> 80 µM (inactive)"}
{"smiles": "CSc1ccccc1NC(=O)c1cc(-c2cccnc2)nc2ccc(Br)cc12", "EC50": "> 80 µM (inactive)"}
{"smiles": "CC(C)N(C(=O)[C@H]1C[C@H](CC(=O)NCc2cccc(C(F)(F)F)c2)C(=O)N2CCc3c([nH]c4ccc(Cl)cc34)[C@]12C)C(C)C", "EC50": "> 80 µM (inactive)"}
{"smiles": "Cc1c(C(=O)Nc2nccs2)oc2ccc(Br)cc12", "EC50": "> 80 µM (inactive)"}
{"smiles": "O=C(/C=C/c1ccccc1)c1ccccc1O", "EC50": "> 80 µM (inactive)"}
{"smiles": "CCN(CC)c1ccc(N=Cc2c(O)n(Cc3ccccc3)c(=O)[nH]c2=O)cc1", "EC50": "62.5 µM (inactive)"}
{"smiles": "c1cc(SC2CCCCC2)cc(-c2nc3cnccn3c2NC2CCCCC2)c1", "EC50": "28.9 µM (inactive)"}
{"smiles": "CC(C)(C)C(=O)NC(=S)NNC(=O)c1sc2ccccc2c1Cl", "EC50": "> 80 µM (inactive)"}
{"smiles": "NS(=O)(=O)c1ccc(N/N=C/c2cn(-c3ccccc3)nc2-c2ccccc2)c([N+](=O)[O-])c1", "EC50": "> 80 µM (inactive)"}
